melting point	Compound
144 to 147 °C	CC1CCN(C2CCN(S(=O)(=O)c3ccc(C(C)C)cc3)CC2)CC1 [compound 13, 1′-((4-Isopropylphenyl)sulfonyl)-4-methyl-1,4′-bipiperidine]
87 to 90 °C	Cc1ccc(C2CCN(S(=O)(=O)c3c(C)cc(C)cc3C)CC2)cc1 [compound 115, 1-(Mesitylsulfonyl)-4-(p-tolyl)piperidine]
123 to 125 °C	CC1CCN(C2CCN(S(=O)(=O)c3cccc(C(F)(F)F)c3)CC2)CC1 [compound 27, 4-Methyl-1′-((3-(trifluoromethyl)phenyl)sulfonyl)-1,4′-bipiperidine]
88 to 91 °C	CC1CCCN(C2CCN(S(=O)(=O)c3ccc(OC(F)F)cc3)CC2)C1 (centres unmarked) [compound 91, 1′-((4-(Difluoromethoxy)phenyl)sulfonyl)-3-methyl-1,4′-bipiperidine]
165 to 168 °C	CC1CCN(C2CCN(S(=O)(=O)c3ccc(Br)cc3)CC2)CC1 [compound 17, 1′-((4-Bromophenyl)sulfonyl)-4-methyl-1,4′-bipiperidine]
103 to 105 °C	Cc1cc(C)c(S(=O)(=O)c2ccc(N3CCC(C)CC3)cc2)c(C)c1 [compound 125, 1-(4-(Mesitylsulfonyl)phenyl)-4-methylpiperidine]
161 to 164 °C	C#CCC1CCN(C2CCN(S(=O)(=O)c3ccc(Br)cc3)CC2)CC1 [compound 92, 1′-((4-Bromophenyl)sulfonyl)-4-(prop-2-yn-1-yl)-1,4′-bipiperidine]
117 to 119 °C	Cc1nc(Cl)sc1S(=O)(=O)N1CCC(N2CCC(C)CC2)CC1 [compound 81, 2-Chloro-4-methyl-5-((4-methyl-[1,4′-bipiperidin]-1′-yl)sulfonyl)thiazole]
120 to 123 °C	Cc1cc(C)cc(-c2cccc(S(=O)(=O)N3CCC(N4CCC(C)CC4)CC3)c2)c1 [compound 69, 1′-((3′,5′-Dimethyl-[1,1′-biphenyl]-3-yl)sulfonyl)-4-methyl-1,4′-bipiperidine]
175 to 178 °C	CC1CCN(C2CCN(S(=O)(=O)c3ccc([N+](=O)[O-])c(C(F)(F)F)c3)CC2)CC1 [compound 35, 4-Methyl-1′-((4-nitro-3-(trifluoromethyl)phenyl)sulfonyl)-1,4′-bipiperidine]
132 to 134 °C	COc1ccc(S(=O)(=O)N2CCC(N3CCC(C)CC3)CC2)cc1OC [compound 31, 1′-((3,4-Dimethoxyphenyl)sulfonyl)-4-methyl-1,4′-bipiperidine]
160 to 162 °C	CC1CCN(C2CCN(S(=O)(=O)c3ccc(Cl)c(Cl)c3)CC2)CC1 [compound 40, 1′-((3,4-Dichlorophenyl)sulfonyl)-4-methyl-1,4′-bipiperidine]
62 to 65 °C	Cc1cc(C)c(S(=O)(=O)N2CCC(N3CCC(C)CC3)CC2)c(C)c1 [compound 47, 1′-(Mesitylsulfonyl)-4-methyl-1,4′-bipiperidine]
89 to 91 °C	Cc1cc(Cl)cc(Cl)c1S(=O)(=O)N1CCC(N2CCC(C)CC2)CC1 [compound 49, 1′-((2,4-Dichloro-6-methylphenyl)sulfonyl)-4-methyl-1,4′-bipiperidine]
158 to 161 °C	Cc1noc(C)c1S(=O)(=O)N1CCC(N2CCC(C)CC2)CC1 [compound 79, 3,5-Dimethyl-4-((4-methyl-[1,4′-bipiperidin]-1′-yl)sulfonyl)isoxazole]
124 to 126 °C	CC1CCN(C2CCN(S(=O)(=O)c3cccc(-c4ccc(Cl)cc4)c3)CC2)CC1 [compound 62, 1′-((4′-Chloro-[1,1′-biphenyl]-3-yl)sulfonyl)-4-methyl-1,4′-bipiperidine]

melting point	Compound
120 to 123 °C	Cc1cc(C)c(S(=O)(=O)N2CCC(N3CCC(O)CC3)CC2)c(C)c1 [compound 101, 1′-(Mesitylsulfonyl)-[1,4′-bipiperidin]-4-ol]
72 to 75 °C	CC1CCN(C2CCN(C(=O)c3ccc(OC(F)(F)F)cc3)CC2)CC1 [compound 119, (4-Methyl-[1,4′-bipiperidin]-1′-yl)(4-(trifluoromethoxy)phenyl)methanone]
148 to 151 °C	Cc1ccc(NC2CCN(S(=O)(=O)c3c(C)cc(C)cc3C)CC2)cc1 [compound 114, 1-(Mesitylsulfonyl)-N-(p-tolyl)piperidin-4-amine]
148 to 151 °C	CC1CCN(CC2CCN(S(=O)(=O)c3ccc(-c4ccccc4)cc3)CC2)CC1 [compound 155, 1-([1,1′-biphenyl]-4-ylsulfonyl)-4-((4-methylpiperidin-1-yl)methyl)piperidine]
136 to 139 °C	CC1CCN(CC2CCN(S(=O)(=O)c3ccc(-c4ccccc4F)cc3)CC2)CC1 [compound 154, 1-((2′-fluoro-[1,1′-biphenyl]-4-yl)sulfonyl)-4-((4-methylpiperidin-1-yl)methyl)piperidine]
144 to 147 °C	CCCC(=O)NC1CCN(S(=O)(=O)c2c(C)cc(C)cc2C)CC1 [compound 118, N-(1-(Mesitylsulfonyl)piperidin-4-yl)butyramide]
122 to 124 °C	Cc1cc(C)c(S(=O)(=O)N2CCC(C(=O)N3CCC(C)CC3)CC2)c(C)c1 [compound 113, (1-(Mesitylsulfonyl)piperidin-4-yl 4-methylpiperidin-1-yl)methanone]
141 to 143 °C	CC1CCN(C2CCN(S(=O)(=O)c3cnc(Cl)s3)CC2)CC1 [compound 80, 2-Chloro-5-((4-methyl-[1,4′-bipiperidin]-1′-yl)sulfonyl)thiazole]
128 to 132 °C	CC1CCN(C2CCN(S(=O)(=O)c3cc(Br)cc4c3OCC4)CC2)CC1 [compound 86, 1′-((5-Bromo-2,3-dihydrobenzofuran-7-yl)sulfonyl)-4-methyl-1,4′-bipiperidine]
98 to 102 °C	COc1ccc(Br)cc1S(=O)(=O)N1CCC(N2CCC(C)CC2)CC1 [compound 33, 1′-((5-Bromo-2-methoxyphenyl)sulfonyl)-4-methyl-1,4′-bipiperidine]
139 to 142 °C	Cc1ccc(S(=O)(=O)N2CCC(N3CCC(C)CC3)CC2)cc1 [compound 11, 4-Methyl-1′-tosyl-1,4′-bipiperidine]
154 to 156 °C	CC1CCN(C2CCN(S(=O)(=O)c3ccccc3)CC2)CC1 [compound 5, 4-methyl-1′-(phenylsulfonyl)-1,4′-bipiperidine]
122 to 124 °C	CC1CCN(C2CCN(S(=O)(=O)c3cccnc3Cl)CC2)CC1 [compound 72, 1′-((2-Chloropyridin-3-yl)sulfonyl)-4-methyl-1,4′-bipiperidine]
139 to 141 °C	CC1CCN(C2CCN(S(=O)(=O)c3sc(Cl)nc3C3CC3)CC2)CC1 [compound 82, 2-Chloro-4-cyclopropyl-5-((4-methyl-[1,4′-bipiperidin]-1′-yl)sulfonyl)thiazole]
137 to 139 °C	CC1CCN(CC2CCN(S(=O)(=O)c3ccc4ncsc4c3)CC2)CC1 [compound 148, 6-((4-((4-methylpiperidin-1-yl)methyl)piperidin-1-yl)sulfonyl)benzo[d]thiazole]

Compound	melting point
CCCCOc1ccc(S(=O)(=O)N2CCC(N3CCC(C)CC3)CC2)cc1 [compound 19, 1′-((4-Butoxyphenyl)sulfonyl)-4-methyl-1,4′-bipiperidine]	137 to 139 °C
